The values below come from patent US20170087108A1, “METHODS OF IMPROVING PHYSIOLOGICAL CONDITIONS RELATED TO PREGNANCY THROUGH DIETARY SUPPLEMENTATION” (Natural Alternatives International, Inc., priority 2015, published 2017).

Data set [1] deals with pigs. In words: Dietary supplementation of female pigs: survivability and live births per litter. It counts as in vivo. To be noted: vs no supplementation and vs carnosine. From the text:
Beta-alanine will be used as a dietary supplement for pigs.
Beta-alanine supplementation will be provided to female pigs during pregnancy. Beta-alanine will be provided in dosages provided in concentrations and/or percentages for times described in this disclosure. Controls will be provided. Controls will include a group of female pigs given no additional supplementation beyond those currently administered during pig pregnancies. Another control group will be provided with supplementation with carnosine at dosages provided in concentrations and/or percentages for times described in this disclosure.
Beta-alanine supplementation will be provided to female pigs prior to and during pregnancy. Beta-alanine will be provided in dosages provided in concentrations and/or percentages for times described in this disclosure. Controls will be provided. Controls will include a group of female pigs given no additional supplementation beyond those currently administered during pig pregnancies. Another control group will be provided with supplementation with carnosine at dosages provided in concentrations and/or percentages for times described in this disclosure.
Beta-alanine supplementation will be provided to female pigs starting from breeding age through pregnancy. Beta-alanine will be provided in dosages provided in concentrations and/or percentages for times described in this disclosure. Controls will be provided. Controls will include a group of female pigs given no additional supplementation beyond those currently administered during pig pregnancies. Another control group will be provided with supplementation with carnosine at dosages provided in concentrations and/or percentages for times described in this disclosure.
Beta-alanine supplementation will be provided to female pigs from birth through pregnancy. Beta-alanine will be provided in dosages provided in concentrations and/or percentages for times described in this disclosure. Controls will be provided. Controls will include a group of female pigs given no additional supplementation beyond those currently administered during pig pregnancies. Another control group will be provided with supplementation with carnosine at dosages provided in concentrations and/or percentages for times described in this disclosure.

The conditions of data set [2]: taken as a free amino acid; some individuals; cited from earlier work.
A further data set relates to chickens. As to conditions: Example 2: supplementation of female chickens during pregnancy; vs no supplementation and vs carnosine. From the text: (§1) Beta-alanine will be used as a dietary supplement for pigs and chickens.
(§2) Beta-alanine supplementation will be provided to female pigs and female chickens during pregnancy. Beta-alanine will be provided in dosages provided in concentrations and/or percentages for times described in this disclosure. Controls will be provided. Controls will include a group of female pigs and female chickens given no additional supplementation beyond those currently administered during pig and chicken pregnancies. Another control group will be provided with supplementation with carnosine provided in dosages provided in concentrations and/or percentages for times described in this disclosure.

Data set [3] relates to pigs. As to conditions: Example 2: supplementation of female pigs during pregnancy; vs no supplementation and vs carnosine.
Source text: as §1, §2

Setting [4] is: Example 1: supplementation during pregnancy.
[5] abbreviates: Example 3: supplementation prior to and during pregnancy.
The mark [6] stands for this setting: Example 4: supplementation from breeding age through pregnancy.
Where [7] appears, read: Example 5: supplementation from birth through pregnancy.

The structures appear in SMILES notation.

For `NCCC(=O)O` [beta-alanine], the “amount of live births per litter” value in the data set on pigs [1] (setting [4]), in the data set on pigs [1] (setting [5]), with pigs [1] (setting [6]) and in the data set with pigs [1] (setting [7]) was “improves” throughout. In addition, the survivability entry with pigs [1] (setting [4]), in the data set with pigs [1] (setting [5]), in the data set on pigs [1] (setting [6]) and in the data set on pigs [1] (setting [7]) was “improves” throughout. In addition, in data set [2], the “duration of flushing/tingling of the skin” value is recorded as “less than 60 minutes”. Also, the “early development rate for chicks” value in the data set with chickens is on record as “improves”. Also, the “early development rate for piglets” value in the data set on pigs [3] is given as “improves”.
